These results are taken from patent publication US10668052B2, “Combinations of isomers of dihydrotetrabenazine” (ADEPTIO PHARMACEUTICALS LIMITED, priority 2017, dated 2020).

Series [1] is described as follows: Pharmacokinetic study of tetrabenazine and dihydrotetrabenazine metabolites in plasma after oral tetrabenazine 25 mg tablets. As to conditions: for Tmax / AUC(0-t) / AUC(0-inf) / Cmax / half-life / AUC: human, plasma; for Tmax: N=08, healthy adult male volunteers; for AUC(0-t): po; for Kel: unit inferred; for metabolite of tetrabenazine in humans (major/minor): after administration of tetrabenazine; for AUC: read-out: area under the curve (AUC). It is filed as in vivo, human. The protocol: A pharmacokinetic study was carried out in healthy adult male volunteers under fasting conditions at a dose of single and multiple oral administration of 25 mg tablets once a day to ascertain the plasma levels of +/−α and +/−β dihydrotetrabenazine.
Table 1 summarises the pharmacokinetic data obtained following single-dose oral administration of tetrabenazine at a dose level of 25 mg (fasting, N=08).
Table 2 summarises the pharmacokinetic data obtained following multiple-dose oral administration of tetrabenazine at a dose level of 25 mg (fasting, N=07).

The test system of series [2] is amphetamine induced locomotor activity in male CD rats. The following applies: for total distance travelled: normalised.
Protocol: Male CD (Charles River Laboratories, Germany) at weight range of 200-250 g (165-200 g upon arrival) were used for the experiments. Animals were housed at a standard temperature (22±1° C.) and in a light-controlled environment (lights on from 7 am to 8 pm) with ad libitum access to food and water.
The locomotor activity of the rats was tested in an open field arena. The open field test was performed during the rat light cycle and under a normal lighting evenly distributed to the test chambers. The paths of the rats were recorded by activity monitor (Med. Associates Inc.).
The rats were placed in the centre of the arena, and the path was recorded for 30 minutes. After 30 minutes of testing, vehicle or amphetamine was dosed and the rat was placed in the centre of the arena, and the path was recorded for 60 minutes, the total testing time being 90 minutes.
Series [3] concerns the target Chromaffin Granule Monoamine Transporter (Bos taurus, UniProt Q27963). The following applies: racemic isomers, in vitro; cited from earlier work.
Setting [4] is: single-dose oral tetrabenazine 25 mg, fasting.
Where [5] appears, read: male, 25 mg, multiple-dose oral tetrabenazine 25 mg once a day, fasting, N=07.
[6] abbreviates: male, 25 mg, single-dose oral tetrabenazine 25 mg, fasting, N=08.
The mark [7] stands for this setting: male, single-dose oral tetrabenazine 25 mg, fasting, N=08.
Where [8] appears, read: multiple-dose oral tetrabenazine 25 mg once a day, fasting, N=07.
Where [9] appears, read: single-dose oral tetrabenazine 25 mg, fasting, N=08.
The mark [10] stands for this setting: oral, 25 mg, single dose study, tetrabenazine to adult male humans.
Setting [11] is: Study 4, 1 mg/kg, compared to vehicle-amphetamine group.
Setting [12] is: Study 6, each isomer 1 mg/kg, risperidone 1 mg/kg, compared to vehicle-amphetamine group, unnormalised.

“Also recorded” adds a separate entry of the source. Read-outs that look alike come from different tables or passages of the source.

Sequence of Chromaffin Granule Monoamine Transporter (Q27963 whole entry): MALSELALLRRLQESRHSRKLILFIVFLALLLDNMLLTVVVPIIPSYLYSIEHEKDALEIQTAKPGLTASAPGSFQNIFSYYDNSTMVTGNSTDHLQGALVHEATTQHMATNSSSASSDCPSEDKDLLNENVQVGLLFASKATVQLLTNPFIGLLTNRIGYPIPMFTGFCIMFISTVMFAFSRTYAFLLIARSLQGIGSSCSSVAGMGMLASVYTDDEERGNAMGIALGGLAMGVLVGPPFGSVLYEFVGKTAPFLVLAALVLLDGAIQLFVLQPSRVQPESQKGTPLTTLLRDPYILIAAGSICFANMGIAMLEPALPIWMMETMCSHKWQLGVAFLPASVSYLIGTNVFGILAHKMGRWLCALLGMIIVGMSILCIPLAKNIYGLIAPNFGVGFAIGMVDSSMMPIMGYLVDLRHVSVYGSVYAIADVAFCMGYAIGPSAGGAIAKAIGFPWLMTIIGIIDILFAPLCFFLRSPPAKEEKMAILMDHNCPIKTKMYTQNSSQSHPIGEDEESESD

On to `COc1cc2c(cc1OC)C1CC(=O)C(CC(C)C)CN1CC2` (racemic) [Tetrabenazine, 1,3,4,6,7,11b-hexahydro-9,10-dimethoxy-3-(2-methylpropyl)-2H-benzo(a)quinolizin-2-one], for which the time of peak concentration (Tmax) in series [1] (setting [4]) worked out at 0.87 h. The AUC(0-t) in series [1] (setting [5]) was determined as 2.79 ng·h/mL. Besides, the AUC(0-t) in series [1] (setting [6]) was 1.87 ng·h/mL. In series [1] (setting [7]), the AUC(0-inf) was found to be 2.42 ng·h/mL, the Cmax was 0.58 ng/mL and the half-life was 4.35 h. Moreover, in series [1] (setting [8]), the Cmaxss was determined as 0.73 ng/mL, the Cminss was 0.01 ng/mL and the “Tmaxss Mean” value was determined as 96.89 h. For the same molecule, in series [1] (setting [9]), the “Extrapolated AUC” value is 27.54% and the Kel turned out to be 0.19 h⁻¹.
As to `COc1cc2c(cc1OC)[C@H]1C[C@@H](O)[C@H](CC(C)C)CN1CC2` [(+)-α-DHTBZ, (2R,3R,11bR)-3-isobutyl-9,10-dimethoxy-1,3,4,6,7,11b-hexahydro-2H-pyrido[2,1,a]isoquinolin-2-ol], the “metabolite of tetrabenazine in humans (major/minor)” value (“metabolite … (major/minor)” for short) in series [1] is given as “minor metabolites”. Also, in series [1] (setting [10]), the maximum concentration (Cmax) came out at 2.61 ng/mL and the exposure (AUC) turned out to be 7.98 ng·h/mL. For the same molecule, the time of peak concentration (Tmax) in series [1] (setting [4]) was 1.16 h. The AUC(0-t) in series [1] (setting [5]) is 13.7 ng·h/mL. The area under the curve AUC(0-t) in series [1] (setting [6]) worked out at 7.98 ng·h/mL. Also, in series [1] (setting [7]), the total exposure AUC(0-inf) was 10.8 ng·h/mL, the Cmax came out at 2.61 ng/mL and the half-life is 4.79 h. Besides, in series [1] (setting [8]), the Cmaxss is 3.31 ng/mL, the Cminss was found to be 0.00 ng/mL, the Ctss came out at 0.44 ng/mL and the “Tmaxss Mean” value came to 97.18 h. Further, in series [1] (setting [9]), the “Extrapolated AUC” value was 32.10% and the Kel is 0.17 h⁻¹.
For the molecule `COc1cc2c(cc1OC)[C@H]1C[C@H](O)[C@H](CC(C)C)CN1CC2` [(+)-β-DHTBZ, (2S,3R,11bR)-3-isobutyl-9,10-dimethoxy-1,3,4,6,7,11b-hexahydro-2H-pyrido[2,1,a]isoquinolin-2-ol], the “metabolite … (major/minor)” value in series [1] (listed as (+)-β-dihydrotetrabenazine) is listed as “major metabolites; also recorded: main metabolites”. Also, in series [1] (setting [10]), the Cmax is 103 ng/mL and the AUC was determined as 376 ng·h/mL. Also, the Tmax in series [1] (setting [4]) is 1.12 h. Besides, the AUC(0-t) in series [1] (setting [5]) was 599 ng·h/mL. Also, the exposure AUC(0-t) in series [1] (setting [6]) is 376 ng·h/mL. Besides, in series [1] (setting [7]), the total exposure AUC(0-inf) amounted to 410 ng·h/mL, the highest concentration (Cmax) was 103 ng/mL and the half-life was 5.8 h. Besides, in series [1] (setting [8]), the Cmaxss was 144.76 ng/mL, the Cminss is 5.45 ng/mL, the Ctss is on record as 5.54 ng/mL and the “Tmaxss Mean” value was found to be 97.11 h. Further, in series [1] (setting [9]), the “Extrapolated AUC” value is given as 5.03% and the Kel came to 0.13 h⁻¹.
`COc1cc2c(cc1OC)[C@@H]1C[C@H](O)[C@@H](CC(C)C)CN1CC2` [(−)-α-DHTBZ, (2S,3S,11bS)-3-isobutyl-9,10-dimethoxy-1,3,4,6,7,11b-hexahydro-2H-pyrido[2,1,a]isoquinolin-2-ol]: in series [1] (listed as (−)-α-dihydrotetrabenazine), the “metabolite … (major/minor)” value is given as “major metabolites; also recorded: main metabolites”. Further, in series [1] (setting [10]), the Cmax was 72.9 ng/mL and the AUC is 306 ng·h/mL. Also, in series [1] (setting [4]), the Tmax turned out to be 0.938 h. Besides, in series [1] (setting [5]), the AUC(0-t) worked out at 474 ng·h/mL. Also, in series [1] (setting [6]), the AUC(0-t) turned out to be 306 ng·h/mL. Also, in series [1] (setting [7]), the AUC(0-inf) is 352 ng·h/mL, the Cmax stood at 72.9 ng/mL and the half-life was 7.89 h. In addition, in series [1] (setting [8]), the Cmaxss is recorded as 98.34 ng/mL, the Cminss is on record as 5.61 ng/mL, the Ctss came out at 6.10 ng/mL and the “Tmaxss Mean” value was 96.96 h. Also, in series [1] (setting [9]), the “Extrapolated AUC” value was 10.59% and the Kel came to 0.1 h⁻¹. In series [2] (Study 1, 2.5 mg/kg, compared to vehicle-amphetamine group), the total stereotypic behaviour entry was “did not lead to lower locomotor activity or reduced stereotypic behaviour”. The “total distance travelled / locomotor activity” value in series [2] (Study 1, 2.5 mg/kg, compared to vehicle-amphetamine group, listed as (−)-α-isomer, 2.5 mg/kg) is on record as “very little, if any, reduction in induced locomotor activity”. Further, in series [2] (Study 1, 2.5 mg/kg, compared to vehicle-vehicle group), the total distance travelled entry is “significantly different”. The “observed behaviour of the rats” value in series [2] (rat, in vivo, 2.5 mg/kg) is recorded as “less focused on what was going on around them”.
As for `Cc1nc2n(c(=O)c1CCN1CCC(c3noc4cc(F)ccc34)CC1)CCCC2` [risperidone, reference compound], the total distance travelled result in series [2] (Study 1, 1 mg/kg, compared to vehicle-amphetamine group) is reported as “significantly different”. Further, in series [2] (setting [11]), the locomotor activity entry is listed as “lower locomotor activity” and the stereotypic behaviour entry is on record as “reduced stereotypic behaviour”. Moreover, in series [2] (setting [12]), the “total distance travelled / locomotor activity” value is reported as “lower locomotor activity” and the total stereotypic behaviour entry is reported as “reduced stereotypic behaviour”.
Take α-dihydrotetrabenazine: the “affinity relative to the β-isomer” value in series [3] is 3- to 4 fold.
